Measurements taken from ChEMBL document CHEMBL4616632, “Discovery of Cyclic Boronic Acid QPX7728, an Ultrabroad-Spectrum Inhibitor of Serine and Metallo-β-lactamases” (J Med Chem, 2020).

Columns and labels:
[1] = test system: Klebsiella pneumoniae; assay: Inhibition of Klebsiella pneumoniae KP1009 CTX-M-15 assessed as minimum concentration of compound required to reduce the MIC of aztreonam to 4 ug/ml
[2] = test system: Escherichia coli; assay: Inhibition of Escherichia coli KP308 SHV-5 assessed as minimum concentration of compound required to reduce the MIC of aztreonam to 4 ug/ml
[3] = test system: Escherichia coli; assay: Inhibition of Escherichia coli EC302 TEM-10 assessed as minimum concentration of compound needed to reduce the MIC of aztreonam to 4 ug/ml
[4] = target: Beta-lactamase (Klebsiella pneumoniae) (UniProt Q93LQ9); assay: Inhibition of Klebsiella pneumoniae KP1004 KPC-2 assessed as minimum concentration of compound needed to reduce the MIC of aztreonam to 4 ug/ml
[5] = test system: Enterobacter cloacae; assay: Inhibition of Enterobacter cloacae ECL1002 AmpC assessed as minimum concentration of compound needed to reduce the MIC of aztreonam to 4 ug/ml
[6] = test system: Klebsiella pneumoniae; assay: Inhibition of Klebsiella pneumoniae KP1081 NDM-1 assessed as minimum concentration of compound required to reduce the MIC of biapenem to 1 ug/ml
[7] = test system: Klebsiella pneumoniae; assay: Inhibition of Klebsiella pneumoniae KP1054 VIM-1 assessed as minimum concentration of compound required to reduce the MIC of biapenem to 1 ug/ml
[8] = test system: Pseudomonas aeruginosa; assay: Inhibition of Pseudomonas aeruginosa PAM 2035 AmpC assessed as minimum concentration of compound needed to reduce the MIC of aztreonam to 4 ug/ml
[9] = test system: Klebsiella pneumoniae; assay: Inhibition of Klebsiella pneumoniae KP1160 IMP-26 assessed as minimum concentration of compound needed to reduce the MIC of meropenem to 1 ug/ml
[10] = test system: Escherichia coli; assay: Inhibition of Escherichia coli ECM6625 SHV-5 assessed as minimum concentration of compound needed to reduce the MIC of aztreonam to 4 ug/ml
[11] = test system: Escherichia coli; assay: Inhibition of Escherichia coli ECM6619 TEM-10 assessed as minimum concentration of compound needed to reduce the MIC of aztreonam to 4 ug/ml
[12] = test system: Acinetobacter baumannii; assay: Inhibition of Acinetobacter baumannii AB1053 OXA-72 assessed as minimum concentration of compound needed to reduce the MIC of meropenem to 8 ug/ml
[13] = target: Beta-lactamase OXA-23 (Acinetobacter baumannii) (UniProt Q9L4P2); assay: Inhibition of Acinetobacter baumannii AB1054 OXA-23 assessed as minimum concentration of compound needed to reduce the MIC of meropenem to 8 ug/ml
[14] = Protein binding in human plasma; type: ADME, cell-free; settings: read-out: PPB (converted)
[15] = target: Class A carbapenemase KPC-2 (Escherichia coli, UniProt A8DS27); assay: Inhibition of recombinant Escherichia coli KPC-2 using nitrocefin as substrate preincubated for 10 mins followed by substrate addition and measured every 10 secs for 10 mins by spectrophotometric analysis
[16] = Inhibition of recombinant Escherichia coli NDM-1 using imipenem as substrate preincubated for 10 mins followed by substrate addition and measured every 30 secs for 30 mins by spectrophotometric analysis
[17] = Inhibition of recombinant Escherichia coli CTX-M-14 using nitrocefin as substrate preincubated for 10 mins followed by substrate addition measured every 10 secs for 10 mins by spectrophotometrically analysis
[18] = Inhibition of recombinant Escherichia coli SHV-12 using nitrocefin as substrate preincubated for 10 mins followed by substrate addition measured every 10 secs for 10 mins by spectrophotometrically analysis
[19] = Inhibition of recombinant Escherichia coli AmpC using nitrocefin as substrate preincubated for 10 mins followed by substrate addition measured every 10 secs for 10 mins by spectrophotometrically analysis
[20] = Inhibition of […] OXA-48 using nitrocefin as substrate preincubated for 10 mins followed by substrate addition measured every 10 secs for 10 mins by spectrophotometrically analysis
[21] = target: Beta-lactamase OXA-23 (Acinetobacter baumannii, UniProt Q9L4P2); assay: Inhibition of Acinetobacter baumannii OXA-23 using nitrocefin as substrate preincubated for 10 mins followed by substrate addition measured every 10 secs for 10 mins by spectrophotometrically analysis
[22] = target: BlaVIM-1 (Escherichia coli, UniProt Q8GDC1); assay: Inhibition of recombinant Escherichia coli VIM-1 using nitrocefin as substrate preincubated for 10 mins followed by substrate addition measured every 10 secs for 10 mins by spectrophotometrically analysis
[23] = Inhibition of recombinant Escherichia coli IMP-1 using imipenem as substrate preincubated for 10 mins followed by substrate addition measured every 30 secs for 30 mins by spectrophotometrically analysis
[24] = Inhibition of recombinant Escherichia coli OXA-48 using nitrocefin as substrate preincubated for 10 mins followed by substrate addition and measured every 10 secs for 10 mins by spectrophotometric analysis
[25] = target: Beta-lactamase (Klebsiella pneumoniae) (UniProt Q93LQ9); assay: Inhibition of Klebsiella pneumoniae KP1004 KPC-2 assessed as minimum concentration of compound needed to reduce the MIC of biapenem to 1 ug/ml
[26] = test system: Klebsiella pneumoniae; assay: Inhibition of Klebsiella pneumoniae KP1086 OXA-48 assessed as minimum concentration of compound needed to reduce the MIC of biapenem to 1 ug/ml
[27] = test system: Klebsiella pneumoniae; assay: Inhibition of Klebsiella pneumoniae KP1081 NDM-1 assessed as minimum concentration of compound needed to reduce the MIC of biapenem to 1 ug/ml
[28] = Drug level in dog treated with disodium salt of 8-carboxylato-2,2-dihydroxy-7-methoxy-3,4-dihydro-2Hbenzo[e][1,2]oxaborinin-2-uide assessed as compound formation; type: ADME, Canis lupus familiaris; settings: in vivo
[29] = Drug level in monkey treated with disodium salt of 8-carboxylato-2,2-dihydroxy-7-methoxy-3,4-dihydro-2Hbenzo[e][1,2]oxaborinin-2-uide assessed as compound formation; type: ADME, Macaca mulatta; settings: rhesus monkey, in vivo
[30] = Oral bioavailability in rat; type: ADME, organism-based; settings: in vivo
[31] = Drug metabolism in dog assessed as oxidative-deboronation by measuring 2-hydroxy-3-(2-hydroxyethyl)-6-methoxy-benzoic acid formation; type: ADME, Canis lupus familiaris
[32] = Drug metabolism in monkey assessed as oxidative-deboronation by measuring 2-hydroxy-3-(2-hydroxyethyl)-6-methoxy-benzoic acid formation; type: ADME, Macaca mulatta; settings: rhesus monkey

Sequence of Beta-lactamase (Klebsiella pneumoniae) (Q93LQ9 as listed by the source): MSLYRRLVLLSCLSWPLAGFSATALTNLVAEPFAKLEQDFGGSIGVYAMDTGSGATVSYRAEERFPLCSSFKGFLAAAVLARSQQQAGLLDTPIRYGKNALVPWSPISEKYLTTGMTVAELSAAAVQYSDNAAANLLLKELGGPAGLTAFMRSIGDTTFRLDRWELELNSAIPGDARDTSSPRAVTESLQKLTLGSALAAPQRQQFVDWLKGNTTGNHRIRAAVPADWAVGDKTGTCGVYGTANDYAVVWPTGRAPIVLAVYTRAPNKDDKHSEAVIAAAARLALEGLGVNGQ
Sequence of Class A carbapenemase KPC-2 (A8DS27 whole entry): as the sequence (Q93LQ9 as listed by the source) above
Sequence of Beta-lactamase OXA-23 (Acinetobacter baumannii) (Q9L4P2 whole entry): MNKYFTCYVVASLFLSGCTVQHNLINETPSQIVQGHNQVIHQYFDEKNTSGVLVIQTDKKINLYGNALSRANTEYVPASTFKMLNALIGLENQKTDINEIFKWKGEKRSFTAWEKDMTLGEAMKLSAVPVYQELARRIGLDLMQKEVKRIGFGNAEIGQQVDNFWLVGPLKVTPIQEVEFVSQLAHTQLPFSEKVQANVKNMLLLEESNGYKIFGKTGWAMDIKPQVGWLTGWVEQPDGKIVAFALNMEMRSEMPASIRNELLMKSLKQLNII
Sequence of Beta-lactamase OXA-23 (Q9L4P2 whole entry): as above

Row | MEC [1] | MEC [4] | MEC [5] | MEC [6] | MEC [7] | MEC [8] | MEC [9] | MEC [10] | MEC [11] | MEC [12] | MEC [13] | Ki [15] | Ki [20] | Ki [22] | SMILES | Ki [16] | Ki [17] | Ki [18] | Ki [19] | Ki [23] | other results
1 | 0.3 µg/mL | 0.16 µg/mL | 0.3 µg/mL | 0.3 µg/mL | 0.04 µg/mL | 2.5 µg/mL | 5 µg/mL | 0.08 µg/mL | 0.08 µg/mL | 0.6 µg/mL | 1.25 µg/mL | – | – | – | COc1ccc2c(c1C(=O)O)OB(O)[C@@H]1C[C@H]21 | – | – | – | – | – | MEC [2]: 0.08 µg/mL; MEC [3]: 0.08 µg/mL; fraction unbound [14]: 0.11
2 | – | – | – | – | – | – | – | – | – | – | – | 0.056 µM | 14 µM | > 40 µM | O=C(O)C[C@@H]1CC[C@H](NC(=O)Cc2cccs2)B(O)O1 [VABORBACTAM] | > 40 µM | 0.033 µM | 0.021 µM | 0.035 µM | > 40 µM | Ki [21]: > 40 µM
3 | – | < 0.04 µg/mL | – | > 20 µg/mL | – | – | – | – | – | – | – | 0.011 µM | 0.027 µM | > 40 µM | NC(=O)[C@@H]1CC[C@@H]2CN1C(=O)N2OS(=O)(=O)O [AVIBACTAM] | 40 to 80 µM | 0.00041 µM | 0.00027 µM | 0.01 µM | > 40 µM | Ki [24]: 0.027 µM; Activity [25]: < 0.04 µg/mL; Activity [26]: 1.25 µg/mL; Activity [27]: > 20 µg/mL
4 | – | – | – | – | – | – | – | – | – | – | – | – | – | – | COc1ccc(CCO)c(O)c1C(=O)O | – | – | – | – | – | Drug uptake [28]: Active; Drug uptake [29]: Active
5 | 0.6 µg/mL | 0.16 µg/mL | 0.3 µg/mL | 0.6 µg/mL | 0.6 µg/mL | 1.25 µg/mL | > 20 µg/mL | 0.6 µg/mL | 0.08 µg/mL | 0.6 µg/mL | 0.6 µg/mL | – | – | – | COc1ccc2c(c1C(=O)O)OB(O)CC2 | – | – | – | – | – | bioavailability [30]: 50%; Drug metabolism [31]: Metabolite_Detected; Drug metabolism [32]: Metabolite_Detected
